Tests used:
Format in all cases: cell-based, human
ROS = experiment: H2O2-induced ROS production in A549 cells (DCF oxidation); conditions: 200 μM H2O2, 400 μM BHA
Protocol: Assesment of intracellular ROS generation. A549 cells were grown in 96-well tissue culture plates and infected with RSV, at 0.1, 0.5 and 1 multiplicity of infection (MOI). At different times post-infection, cells were washed with Hank's Balanced Salt Solution (HBSS) and loaded with 10 μM 2,7 dichlorofluorescein diacetate (DCF-DA) in HBSS medium containing 25 mM HEPES, pH 7.4, for 30 minutes at 37° C. The cells were then washed twice and fluorescence intensity was determined at 485 nm excitation and 590 nm emission, using an automated fluorescence reader (Flurocount, Hewlett-Packard Instruments, IL). For the experiments in which H2O2 was used as a stimulus for ROS production, cells were preloaded with […] DCF-DA for 30 minutes, washed and then fluorescence intensity was measured at different times following addition of H2O2. Measurements were performed in triplicate and results expressed as fluorescence mean±S.D. of n=3 independent experiments.

IRF-3 = experiment: Western blot of IRF-3 in total cell lysates of RSV-infected A549 cells; conditions: whole cell extracts, RSV 12 hours, 400 μM
Protocol: (§1) Western Immunoblot. Total cell lysates and cytoplasmic and nuclear proteins were prepared as previously described, fractionated by SDS-PAGE and transferred to PVDF membrane (20). Membranes were blocked with 5% albumin in TBS-Tween and incubated overnight with a rabbit polyclonal antibody to IRF-1, -3 and -7 (Santa Cruz Biotech, Santa Cruz, Calif.). For secondary detection, a horseradish-coupled anti-rabbit or anti-mouse antibody was used in the enhanced chemiluminescence assay (Amersham Pharmacia Biotec, Arlington Heights, Ill.).

IRF-1 = experiment: Western blot of IRF-1 in total cell lysates of RSV-infected A549 cells; conditions: whole cell extracts, RSV 12 hours, 400 μM
Protocol: as §1

RANTES = experiment: RSV-induced RANTES secretion in A549 cells (ELISA); conditions: A549 cells
Protocol: Cell culture and infection of epithelial cells with RSV. A549, human alveolar type II-like epithelial cells (ATCC, Manassas, Va.), were maintained in F12K medium containing 10% (v/v) fetal bovine serum (FBS), 10 mM glutamine, 100 IU/ml penicillin and 100 μg/ml streptomycin. Small alveolar epithelial cells (SAE) were obtained from Clonetics (San Diego, Calif.) and grown according to the company instructions. Cell monolayers were infected with RSV at multiplicity of infection (MOI) of 1 (unless otherwise stated), as described (17). An equivalent amount of a 20% sucrose solution was added to uninfected A549 cells, as a control. For the antioxidant experiments, cells were pretreated with the antioxidants for one hour and then infected in the presence of the antioxidants. Since BHA was diluted in ethanol, equal amounts of ethanol were added to untreated cells, as a control. Total number of cells, cell viability and viral replication, following antioxidant treatment, were measured by trypan blue exclusion and by plaque assay, respectively. RANTES ELISA. Immunoreactive RANTES was quantitated by a double antibody ELISA kit (DuoSet, R&D Systems, Minneapolis, Minn.) following the manufacturer's protocol.

NF-κB = experiment: RSV-induced NF-κB nuclear translocation and DNA-binding in A549 cells; conditions: data not shown
RANTES ISRE = experiment: EMSA of RANTES ISRE binding complexes, nuclear extracts of RSV-infected A549 cells; conditions: RSV 12 hours, 400 μM
Protocol: Electrophoretic mobility shift assay (EMSA): Nuclear extracts of uninfected and infected A549 cells were prepared using hypotonic/nonionic detergent lysis, as previously described (20). Proteins were normalized by protein assay (Protein Reagent, Bio-Rad, Hercules, Calif.) and used to bind to a duplex oligonucleotide corresponding to the RANTES ISRE, whose sequences is shown below:
DNA-binding reactions contained 10-15 μg nuclear proteins, 5% glycerol, 12 mM HEPES, 80 mM NaCl, 5 mM dithiothreitol (DTT), 5 mM Mg2Cl, 0.5 mM EDTA, 1 μg of poly dI-dC and 40,000 cpm of ^32P-labeled double-stranded oligonucleotide in a total volume of 20 μl. The nuclear proteins were incubated with the probe for 15 minutes at room temperature and then fractionated by 6% nondenaturing polyacrylamide gels (PAGE) in TBE buffer (22 mM Tris-HCl, 22 mM boric acid, 0.25 mM EDTA, pH 8). After electrophoretic separation, gels were dried and exposed for autoradiography using Kodak XAR film at −70° C. using intensifying screens.

RANTES mRNA = experiment: Northern blot of RANTES mRNA in RSV-infected A549 cells; conditions: 400 μM
Protocol: Cell culture and infection of epithelial cells with RSV. A549, human alveolar type II-like epithelial cells (ATCC, Manassas, Va.), were maintained in F12K medium containing 10% (v/v) fetal bovine serum (FBS), 10 mM glutamine, 100 IU/ml penicillin and 100 μg/ml streptomycin. Small alveolar epithelial cells (SAE) were obtained from Clonetics (San Diego, Calif.) and grown according to the company instructions. Cell monolayers were infected with RSV at multiplicity of infection (MOI) of 1 (unless otherwise stated), as described (17). An equivalent amount of a 20% sucrose solution was added to uninfected A549 cells, as a control. For the antioxidant experiments, cells were pretreated with the antioxidants for one hour and then infected in the presence of the antioxidants. Since BHA was diluted in ethanol, equal amounts of ethanol were added to untreated cells, as a control. Total number of cells, cell viability and viral replication, following antioxidant treatment, were measured by trypan blue exclusion and by plaque assay, respectively. Northern Blot. Total RNA was extracted from control and infected A549 cells by the acid guanidium thiocyanate-phenol chloroform method (18). Twenty micrograms of RNA were fractionated on a 1.2% agarose-formaldehyde gel, transferred to nylon membranes and hybridized to a radiolabeled RANTES, IRF-1, -3 and -7 cDNAs, as previously described (19). […]

COc1ccc(O)c(C(C)(C)C)c1 [BHA, butylated hydroxyanisol]
H2O2-induced ROS production (ROS): almost completely inhibited | RSV-induced IRF-3 mobility shift (IRF-3): almost completely abolished | RSV-induced IRF-1 protein synthesis (IRF-1): almost completely abolished | effectiveness in reducing RSV-induced RANTES secretion, compared among the antioxidants (RANTES): most effective | RSV-induced RANTES production (RANTES; 400 μM, 24 hours, ELISA): significantly block | RSV-induced NF-κB nuclear translocation and DNA-binding (NF-κB): did not affect | RSV-induced RANTES ISRE binding (RANTES ISRE): completely abolished | RSV-induced RANTES mRNA induction (RANTES mRNA; 6 and 12 hours post-infection): completely inhibited | RSV-induced RANTES mRNA induction (RANTES mRNA; 24 hours post-infection): greatly reduced

Source: patent US6699459B2, “Methods of treating lung inflammation” (The Board of Regents of the University of Texas System, priority 2001, dated 2004)
